Source: US20180236105A1, “METHODS FOR TREATING NEURODEGENERATIVE DISEASES USING GENE THERAPY TO DELAY DISEASE ONSET AND PROGRESSION WHILE PROVIDING COGNITIVE PROTECTION” (UNIVERSITY OF IOWA RESEARCH FOUNDATION, priority 2015, published 2018)

Key:
[1] = system: Cln2−/− mouse embryo fibroblast cells; assay: caTPP1 neutralization antibody assay (NAbs in dog CSF/serum); type: cell-based
Method: To assess neutralizing Abs (Nabs) in CSF, Cln2−/− mouse embryo fibroblast cells were used. Sixteen hours before the assay, 1.0×10^5 cells/well were plated onto 24 wells plate the day before, and dog CSF was heat inactivated at 56° C. for 30 minutes, diluted 1:10, and then pre-incubated with 1.75 nM of TPP1 at 37° C. for one hour. The mixture was applied to cells for three hours at 37° C. after which the cells were washed with 37° C. HBSS (Ca^2+ and Mg^2+) and then homogenized in 100 μl of ice cold homogenization buffer-0.1% TritonX-100 in normal saline with complete protease inhibitor cocktail (Roche, Mannheim, Germany). Insoluble material was removed by centrifugation at 21×10^3 rcf at 4° C. for 10 minutes and TPP1 activity detected as described above. The results were calculated as percentage of activity obtained from CSF collected prior to vector administration.

[2] = system: CLN2−/− dogs; assay: Cerebrospinal fluid TPP1 enzyme activity assay; type: in vivo, dog; conditions: for CSF TPP1 activity after introduction of MMF: with cyclosporine and rAAV.caTPP1
From the text: Long-haired miniature Dachshunds were bred and housed at the University of Missouri in facilities overseen by the Office of Animal Resources (OAR). TPP1-null animals were generated from heterozygous breeding (Awano, 2006). All puppies were genotyped by PCR. In addition to the standard care provided by the OAR, the dogs were socialized on a daily basis throughout the study. All procedures involving dogs were reviewed and approved by the University of Missouri Animal Care and Use Committee and conformed to the National Institutes of Health Guide for the Care and Use of Laboratory Animals. Intraventricular infusions were performed over 25 minutes using the Brainsight™ neuronavigation system equipped with a 26 gauge 12 cm needle. Cyclosporine 10 mg/kg twice daily by mouth was administered to all of the dogs in this study starting one to two weeks prior to the gene therapy vector administration. The dose was gradually tapered after 2 months to once daily, which was continued for the duration of the study. A 10-20 mg/kg daily dose by mouth of mycophenolate mofetil (MMF) was instituted, as indicated in the results, and tapered after 2 to several months depending on tolerability.
TPP1 activity was assayed via a modification of previously described methods (Chang et al., 2008; Tian et al., 2006). Samples were homogenized in 300 μl ice-cold homogenization buffer (0.1% Triton X-100 in normal saline with complete protease inhibitor cocktail, Roche, Mannheim, Germany). Insoluble material was removed by centrifugation at 21×10^3 rcf at 4° C.×15 minutes, and protein quantified by DC Protein Assay (Biorad, Hercules, Calif.). […] Plates were read in a Safire 2 microplate reader (Tecan., Mannedorf, Switzerland) at 37° C. using the 460-nm emission filter. […]
Samples were concentrated 3.5-fold using Amicon Ultra-0.5 Centrifugal filter (Ultracel-10K. Millipore Corporation) at 21×10^3 rcf for 5 minutes at 4° C. Activated TPP1 was quantified as in tissue samples.

[3] = system: dog disease model; conditions: cited from earlier work
[4] = MMF 5 days prior to rAAV.caTPP1 delivery, DC018

Molecule: COc1c(C)c2c(c(O)c1C/C=C(\C)CCC(=O)OCCN1CCOCC1)C(=O)OC2 [MMF, mycophenolate mofetil]
- anti-TPP1 antibodies [1, 4]: did not appear
- anti-TPP1 immune responses ([1]; MMF at the time of or before AAV delivery): reduced, inhibited or dramatically delayed
- anti-TPP1 Ab titers ([1]; MMF by 33 days post-vector, with cyclosporine and rAAV.caTPP1): reduction in anti-TPP1 Ab titers
- CSF TPP1 activity [2, 4]: robust and sustained
- CSF TPP1 activity after introduction of MMF ([2]; MMF by 33 days post-vector, DC015, DC016): increase in CSF TPP1 activity
- CSF TPP1 activity after introduction of MMF ([2]; MMF from 44 days post-vector, DC013, DC014): did not result in a recovery of TPP1 activity

B1: recombinant human TPP1: recombinant human TPP1 infused into the lumbar subarachnoid space or lateral ventricle (Vuillemenot et al., 2015) (protein, UniProt O14773 196-563, looked up)
Tripeptidyl-peptidase 1: LHLGVTPSVIRKRYNLTSQDVGSGTSNNSQACAQFLEQYFHDSDLAQFMRLFGGNFAHQASVARVVGQQGRGRAGIEASLDVQYLMSAGANISTWVYSSPGRHEGQEPFLQWLMLLSNESALPHVHTVSYGDDEDSLSSAYIQRVNTELMKAAARGLTLLFASGDSGAGCWSVSGRHQFRPTFPASSPYVTTVGGTSFQEPFLITNEIVDYISGGGFSNVFPRPSYQEEAVTKFLSSSPHLPPSSYFNASGRAYPDVAALSDGYWVVSNRVPIPWVSGTSASTPVFGGILSLINEHRILSGRPPLGFLNPRLYQQHGAGLFDVTRGCHESCLDEEVEGQGFCSGPGWDPVTGWGTPNFPALLKTLLNP
- anaphylactic reactions ([3]; bolus infusion): Anaphylactic reactions were noted
- immune responses to recombinant protein ([3]; infused into the lumbar subarachnoid space or lateral ventricle): robust anti-TPP1 responses
